Patent US10470986B2, “Resorcinol compounds for dermatological use” (Conopco, Inc., priority 2013, dated 2019)

Experiments:
B16F1 cells = assay: B16 Melanin Assay; format: cell-based; details: 1 mM Theophylline stimulated, 72 h, media absorbance 405 nm corrected for viability (Calcein-AM); compound concentration not stated
Protocol: After trypsinization, cells were seeded at 3,000 cells per well in a 96-well plate and allowed to attach overnight. 1 mM Theophylline was used to stimulate melanogenesis, and the compound of interest was added. […] (AbsDMSO/CalceinDMSO-[…]/CalceinDMSO×100. The assay was performed for various compounds described herein, as well as for control compounds 4ER, 4IPR, 4HR, 4CHR, 5MR kojic acid, and hydroquinone. Results are shown in Table 2.

MelanoDerm (Mel-300-B) = assay: Mattek 3D Skin Equivalents, MelanoDerm (Mel-300-B) assay; format: cell-based, human; details: every other day, 14 days
Source text: Many people at different stages of their life are concerned with the degree of pigmentation of their skin and may wish to reduce the skin darkening, or may wish to lighten or even-tone their natural skin color. The mechanism by which skin pigmentation is formed, melanogenesis, is particularly complex and schematically involves the following main steps: Tyrosine→L-Dopa→Dopaquinone→Dopachrome→Melanins. The first two reactions in this series are catalyzed by the enzyme tyrosinase. The activity of tyrosinase is promoted by the action of a-melanocyte stimulating hormone or UV rays. It is well established that a substance has a depigmenting effect if it acts directly on the vitality of the epidermal melanocytes where melanogenesis normally occurs and/or if it interferes with one of the stages in melanin biosynthesis. Pigmentation disorders can take a variety of forms like hyperpigmentation, hypopigmentation, and uneven pigmentation, and include but are not limited to melasma (mask of pregnancy or chloasma), liver spots (which often develop with age) and leukoderma such as vitiligo. […] The degree of pigmentation disorders of the skin in many cases increases with the age of the individuals. Because of the involvement of tyrosinase in melanogensis, tyrosinase inhibition assays are often used to screen potential skin lightening agents. Some mushroom tyrosinases (such as that from Agaricus bisporus) are homologous with mammalian tyrosinase, and mushroom tyrosinase is often used in inhibition assays due to its ready commercial availability. However, the enzyme inhibition assays may not be as good an indicator of activity as assays which are more similar to the intended clinical or cosmetic use, such as the MatTek Corporation's MelanoDerm™ Skin Model (a system which consists of normal, human-derived epidermal keratinocytes and melanocytes formed into a multilayered model of human epidermis).
MelanoDerm (Mel-300-B) assay was conducted according to the manufacturer's instruction (MatTek Corporation). Every other day, the test articles were administered into the EPI-100-NMM-113 culture medium, and positive control, 25 uL of 2% Kojic acid was applied topically. After 14 days, tissue viability and melanocyte morphology were visually verified and tissue melanin was extracted and quantitated against a standard curve. % melanin was calculated as follows: (MelaninDMSO−Melanincomp)/MelaninDMSO×100. The assay was performed for various compounds described herein, as well as for control compounds 4ER, 4IPR, 4HR, 4CHR, kojic acid, and hydroquinone.

[1] = test system: mushroom tyrosinase (Sigma T3824); assay: Mushroom Tyrosinase Inhibition Assay; format: biochemical; details: 10 μM compound, 300 μM L-Tyrosine, 84 units/mL enzyme, pH 6.5, 15 min at room temperature
Protocol: 10 μM compound, 300 μM L-Tyrosine, and 84 units/mL of mushroom tyrosinase (Sigma T3824) were combined into 0.05 M potassium monophosphate buffer at pH=6.5, and incubated for 15 min at room temperature. Absorbance was recorded at 490 nm. % tyrosinase inhibition was calculated as follows: (AbsDMSO−Abscmpd)/AbsDMSO×100. The assay was performed for various compounds described herein, as well as for control compounds 4-ethyl resorcinol (4ER), 4-isopropylresorcinol (4IPR), 4-hexylresorcinol (4HR), 4-cyclohexylresorcinol (4CHR), 5-methylresorcinol (5MR), kojic acid (KA), and hydroquinone (HQ), structures of which are shown below.

Row | SMILES | Mushroom Tyrosinase (% remaining enzyme activity), % TYR Activity [1] [%] | B16 Media Melanin (% Melanin), % Melanin B16 (B16F1 cells) [%] | MatTek Assay (% Melanin), % Melanin 3D EpiDerm (MelanoDerm (Mel-300-B); 10 μM in culture medium) [%] | MatTek Assay (% Melanin), % Melanin 3D EpiDerm (MelanoDerm (Mel-300-B); 30 μM in culture medium) [%] | MatTek Assay (% Melanin), % Melanin 3D EpiDerm (MelanoDerm (Mel-300-B); positive control, 25 uL of 2% Kojic acid applied topically) [%]
1 | Oc1ccc(C2CCCCC2)c(O)c1 [Compound 4CHR, 4-cyclohexylresorcinol, reference compound] | 0 | 63 | 65 | 36 | 
2 | CCc1ccc(O)cc1O [Compound 4ER, 4-ethyl resorcinol, reference compound] | 2 | 48 | 84 | 61 | 
3 | CCc1c(O)cc(O)cc1C(F)(F)F [4,5ETFMR, 2-Ethyl-1,5-dihydroxy-3-trifluoromethyl-benzene] |  | 68 | 81 | 66 | 
4 | Oc1ccc(O)cc1 [Hydroquinone, hydroquinone, reference compound] | 100 | 100 | 94 | 92 | 
5 | Oc1cc(O)c(C2CCCCC2)c(F)c1 [4,5CHFR, 4-cyclohexyl-5-fluorobenzene-1,3-diol] | 1 | 51 | 87 | 81 | 
6 | Oc1cc(O)c(Cc2ccccc2)c(C(F)(F)F)c1 [4,5BnTFMR, 2-Benzyl-1,5-dihydroxy-3-trifluoromethyl-benzene] | 93 | 82 |  | 75 | 
7 | CC(C)c1ccc(O)cc1O [Compound 4IPR, 4-isopropylresorcinol, reference compound] | 1 | 77 | 71 | 46 | 

Now from value to compound, other results behind:

Row | Mushroom Tyrosinase (% remaining enzyme activity), % TYR Activity [1] [%] | SMILES | B16 Media Melanin (% Melanin), % Melanin B16 (B16F1 cells) [%] | MatTek Assay (% Melanin), % Melanin 3D EpiDerm (MelanoDerm (Mel-300-B); 10 μM in culture medium) [%] | MatTek Assay (% Melanin), % Melanin 3D EpiDerm (MelanoDerm (Mel-300-B); 30 μM in culture medium) [%] | MatTek Assay (% Melanin), % Melanin 3D EpiDerm (MelanoDerm (Mel-300-B); positive control, 25 uL of 2% Kojic acid applied topically) [%]
8 | 32 | Cc1cc(O)cc(O)c1CC1CCCC1 [4,5MCPMR, 4-cyclopentylmethyl-5-methylbenzene-1,3-diol] | 90 | 94 | 72 | 
9 | 84 | O=c1cc(CO)occ1O [Kojic Acid, kojic acid, reference compound] | 100 | 100 | 100 | 75
10 | 97 | Cc1cc(O)cc(O)c1Cc1ccccc1 [4,5BnMR, 4-benzyl-5-methylbenzene-1,3-diol] | 86 | 82 | 61 | 
11 | 30 | Cc1cc(O)cc(O)c1C1CC1 [4,5CPrMR, 4-cyclopropyl-5-methylbenzene-1,3-diol] | 62 | 99 | 82 | 
12 | 1 | CCCCCCc1ccc(O)cc1O [Compound 4HR, 4-hexylresorcinol, reference compound] | 71 | 93 | 72 | 
